{"source": "patent US11077138B2", "about": "“Methods of tissue repair and regeneration” (INNOLIFE CO., LTD., priority 2015, dated 2021)", "key": {"[1]": {"test_system": "BMSCs homing (SDF-1/CXCR4 axis)", "assay": "Tracking of homing of labeled autologous BMSCs to the infarcted rabbit heart", "format": "in vivo, New Zealand white rabbits", "conditions": "BMSCs incubated overnight with AMD3100", "procedure": "(1) Adult male New Zealand white rabbits were preoperative fasted for 12 hours, and the operation room was sterilized by overnight ultraviolet radiation before the surgery. (2) Rabbits were anesthetized with 3 ml/kg chloral hydrate by intraperitoneal administration, and then placed on the operation table in the supine position. Hairs covering chest and limbs at electrode attachment site were shaved. The surgical area was scrubbed with povidone-iodine for 3 consecutive times. Lidocaine was injected into the subcutaneous area around the incision site. (3) Electrodes were attached to the limbs and ECG (electrocardiogram) was recorded 30 minutes before and after the surgery. (4) The rabbits were subjected to a median sternotomy. The skin was cut and the s.c. tissue and the muscular was dissected. Afterwards, the sternum was retracted and the pleuron was dissected, the pleural space was opened and so the pericardium was exposed. (5) After gently incision of the pericardium, the heart was exposed and the left circumflex branch (LC) was ligated. […] (6) Color changes of the anterior ventricular wall, the difference of left ventricular wall motion, and alterations including ST segment recorded by electrodes II, III, and aVF in ECG was monitored for 2 minutes to ensure that the ligation was successful. […]"}, "[2]": {"test_system": "isolated rat aortic rings", "assay": "Isolated rat aortic ring assay for angiogenesis", "format": "cell-based, Sprague Dawley rats", "conditions": "8 days", "source_text": "Thoracic aortas were removed from 8- to 10-week-old male Sprague Dawley (SD) rats (292-307 g) and immediately transferred to a culture dish containing ice-cold serum-free endothelial basal medium-2 (EBM-2, Lonza Cologne AG). The periaortic fibroadipose tissue was carefully removed with fine microdissecting forceps and iridectomy scissors; paying special attention not to damage the aortic wall. One-millimeter long aortic rings were sectioned and extensively rinsed in five consecutive washes with EBM-2.\nForty-eight well tissue culture grade plates were covered with 100 μl of matrigel (GFR, BD) and allowed to gel for 45 min at 37° C., 5% CO2. Aortic rings were placed on the matrigel-coated wells, covered with an additional 100 μl matrigel and allowed to gel again for 45 min at 37° C., 5% CO2. The culture was then added 250 μl EBM-2 containing 1% fetal bovine serum (FBS). Copper sulfide solution was added to the culture at a final concentration of 5, 25, 50 or 100 μM copper element. The growth media were removed and replaced every 2 days. Aortic rings were photographed on Day 8.\nThe area of angiogenic sprouting was calculated using the Image J software program (NIH, Bethesda, Md.). Microvessel densities are reported in square pixels.\n(§1) Aortic rings were cultured in 48-well plates in 250 μl EBM-2 (1% FBS) media containing anti-VEGF antibody (Santa Cruz, Calif., USA) at a final concentration of 2 ng/ml. The treatment and angiogenesis assay were the same as above."}, "VEGF": {"test_system": "VEGF", "assay": "Western blotting analysis of VEGF in isolated rat aortic rings", "format": "cell-based, Sprague Dawley rats", "conditions": "for production of VEGF (protein level): 8 days", "procedure": "Protein extracts were obtained after lysing rat aortic rings with matrigel in the radio immunoprecipitation assay (RIPA) lysis buffer (Beyotime, Jiangsu, CN) containing 1% complete ethylene diamine tetraacetic acid (EDTA)-free protease inhibitor cocktail (Roche, Mannhein, DE) for 30 min on ice. Equal loading of protein was assured by prior quantitation using a bicinchoninic acid (BCA) protein assay kit (Thermo, Rockford, USA). An appropriate amount of protein in total lysates was resolved in a sodium dodecyl sulfate (SDS)-polyacrylamide electrophoresis gel and transferred onto a polyvinylidene difluoride membrane (Bio-rad, USA). Membranes were blocked for 1 h in Tris-buffered saline/Tween 20 (TBST) (10 mM Tris.HCl, pH 8.0, 150 mM NaCl and 0.1% Tween 20) containing 5% nonfat dry milk and incubated overnight at 4° C. with the primary mouse anti-VEGF antibody (Santa Cruz, Calif., USA) and mouse antibeta actin antibody (ZSGB-BIO, Beijing, CN) diluted in the blocking buffer. After washing with TBST, the membranes were incubated with a horseradish peroxidase (HRP)-linked antimouse immunoglobulin G (IgG) antibody (ZSGB-BIO, Beijing, CN) diluted in TBST for 1 h at room temperature. Target proteins were visualized using a chemiluminescence HRP substrate (Millipore, Billerica, USA).\nas §1"}, "HIF-1": {"test_system": "HIF-1", "assay": "Hypoxia-induced activation of HIF-1 in HepG2 cells", "format": "cell-based, human", "source_text": "There are multiple sites that potentially require copper for activation of HIF-1, including HIF-1α synthesis, stabilization, translocation from cytosol to nucleus, binding to the HRE sequence of target genes, and HIF-1 transcriptional complex formation. We have specifically determined the mechanism of action of copper in regulation of HIF-1 transcriptional activity in human hepatoma HepG2 cells. […] This CCS gene silencing result excludes possible confounding effect on nonspecific chelation by TEPA. […] Therefore, it was concluded that copper is required for HIF-1 activation through regulation of HIF-1α binding to the HRE and the formation of HIF-1 transcriptional complex. Copper deficiency thus suppresses HIF-1 transcriptional activity by FIH-1 depression."}, "[3]": {"conditions": "copper at concentrations above 50 μM"}}, "note": "Entries after “also recorded” stand apart in the source; their conditions may differ."}
{"compound": "c1cc(CN2CCCNCCNCCCNCC2)ccc1CN1CCCNCCNCCCNCC1", "note": "[AMD3100]", "values": [{"measurement": "homing of AMD3100 treated BMSCs to Cu-albumin-microbubble treated chronic ischemic area", "setting": "[1]; 6 months after MI surgery, Cu-albumin-microbubble treated", "result": "homing signals could not be observed; also recorded: no BMSCs homing signal"}, {"measurement": "homing of AMD3100 treated BMSCs to acute cardiac infarct area", "setting": "[1]; within 1 month after MI surgery", "result": "could not home cardiac infarct area; also recorded: significant decrease of BMSCs homing signals"}]}
{"compound": "NCCNCCNCCNCCN", "note": "[TEPA, tetraethylenepentamine]", "values": [{"measurement": "copper promotion of angiogenesis, TEPA with copper", "setting": "[2]; 25 μM TEPA simultaneously with 5 μM copper", "result": "blocked; also recorded: completely suppressed the angiogenic promotion effect of 5 μM copper"}, {"measurement": "angiogenesis, TEPA alone", "setting": "[2]; 25 μM TEPA", "result": "caused an inhibition of angiogenesis"}, {"measurement": "VEGF levels", "setting": "VEGF; 25 μM TEPA, with or without 5 μM copper", "result": "significantly decreased VEGF levels"}, {"measurement": "hypoxia-induced activation of HIF-1", "setting": "HIF-1", "result": "suppressed hypoxia-induced activation of HIF-1"}]}
{"compound": "Copper sulfide", "values": [{"measurement": "angiogenesis (area of angiogenic sprouting)", "setting": "[2]; 5 μM copper, EBM-2 with 1% FBS", "result": "stimulated the vascular formation; also recorded: strongest promotion effect on the angiogenesis"}, {"measurement": "angiogenesis (area of angiogenic sprouting)", "setting": "[2]; [3]", "result": "lost the pro-angiogenesis effect; also recorded: significantly inhibitory effect"}, {"measurement": "production of VEGF (protein level)", "setting": "VEGF; 5 μM copper", "result": "did not enhance the production of VEGF"}, {"measurement": "production of VEGF (protein level)", "setting": "VEGF; [3]", "result": "significantly increased the production of VEGF"}]}
